Data published in US5451572A (Genentech, Inc., priority 1993, dated 1995).

Experiments:
[1] = Reverse phase HPLC stability of liquid relaxin formulations; settings: in Milli-Q water at 5° C., reference material
Procedure: All buffers were made up to isotonicity (0.154 μ) with the addition of NaCl. […] The resulting 135 100-μL-microvials and 90 1.5-ml-vials were placed on stability tests at 5, 25 and 40° C. Samples were assayed at 0, 7, 21, and 30 days by reverse phase HPLC, ELISA, and cyclic AMP assays. In addition to these assays, the samples were also assayed by near UV circular dichroism (near UV CD) and analytical ultracentrifugation (UC) on days 0 and 30.
The resulting nine samples were each sterile filtered, divided into three equal volumes, and loaded into sterile 300 μL glass microvials. The resulting 27 vials containing about 9 mg were placed on stability testing at 5, 25, and 40° C. for up to 40 days. Samples were assayed by an ELISA assay and a C4 reverse-phase HPLC assay on days 0, 7, 14, 28, and 40. The remaining 3 mg of relaxin was kept in Milli-Q water at 5° C. and used as the reference material. […] These observations were repeated on reference samples used in subsequent stability studies. […]
Study 1: The degradation of relaxin as a function of time was monitored by reverse phase HPLC. […] The fraction of the main peak remaining was computed from triplicate samples (when available), and first-order plots of the degradation kinetics of the main HPLG peak for the five formulations shown in Table I (ranging from 3.0 to 7.5) were determined. […]

cervix [2] = settings: 2-mg dose in methylcellulose gel; MacLennan et al. (1981); cited from earlier work
rabbit cervix = assay: Efficacy on the ripening of the rabbit cervix; type: in vivo; settings: initial study, 300 μg/ml topical formulation, 0.5 ml intravaginal, eighteen hours
Procedure: Mature pregnant female New Zealand rabbits weighing 4.5 to 6.0 kg were studied. […] Both hormones were applied intravaginally by means of a syringe and a catheter in a volume of 0.5 ml. Control animals received the vehicle alone. After 16-18 hours, the animals were sacrificed using a lethal dose of pentobarbital. […] Paraffin sections were cut and stained with hematoxylin/eosin and alcian blue PAS. Sections were evaluated for general morphology, and specifically for the degree of separation of muscular tissue and collagen fibrils in the submucosa and for the presence of characteristic PAS positive giant cells, which are multinucleate cells of macrophage origin that normally infiltrate the cervix during labor. The measurement of giant cells is accomplished using the procedure described by MacLennan et al., Am J. Obstet.

cervix [3] = settings: infusion of 3000 units in the cervical os; Perezgrovas and Anderson (1982); cited from earlier work

Compound | stability by reverse phase HPLC [1] | cervical score (cervix [2]) | morphology of the pregnant cervix (ripening) (rabbit cervix) | time to increased dilatation of the cervix (cervix [3])
CC[C@H](C)[C@@H]1NC(=O)[C@H](C)NC(=O)[C@H]([C@@H](C)CC)NC(=O)[C@H](CCC(N)=O)NC(=O)[C@H](C)NC(=O)[C@H](CCCNC(=N)N)NC(=O)[C@H](C(C)C)NC(=O)[C@H](CC(C)C)NC(=O)[C@H](CCC(=O)O)NC(=O)[C@H](CCCNC(=N)N)NC(=O)CNC(=O)[C@@H](NC(=O)[C@H](CC(C)C)NC(=O)[C@H](CCCCN)NC(=O)[C@@H](NC(=O)[C@@H](NC(=O)[C@H](CCC(=O)O)NC(=O)[C@H](CCC(=O)O)NC(=O)[C@H](CCSC)NC(=O)[C@H](Cc2c[nH]c3ccccc23)NC(=O)[C@H](CO)NC(=O)[C@@H](N)CC(=O)O)C(C)C)[C@@H](C)CC)CSSC[C@@H]2NC(=O)[C@@H](NC(=O)[C@H](CCCCN)NC(=O)[C@H](CC(N)=O)NC(=O)[C@H](C)NC(=O)[C@H](CC(C)C)NC(=O)[C@H](C)NC(=O)[C@H](CO)NC(=O)[C@H](Cc3ccc(O)cc3)NC(=O)[C@H](CC(C)C)NC(=O)[C@@H]3CCC(=O)N3)CSSC[C@H](NC(=O)CNC(=O)[C@H](C(C)C)NC(=O)[C@H](Cc3c[nH]cn3)NC2=O)C(=O)N[C@@H]([C@@H](C)O)C(=O)N[C@@H](CCCCN)C(=O)N[C@@H](CCCNC(=N)N)C(=O)N[C@@H](CO)C(=O)N[C@@H](CC(C)C)C(=O)N[C@@H](C)C(=O)N[C@@H](CCCNC(=N)N)C(=O)N[C@@H](Cc2ccccc2)C(=O)N[C@H](C(=O)O)CSSC[C@@H](C(=O)NCC(=O)N[C@@H](CCSC)C(=O)N[C@@H](CO)C(=O)N[C@H](C(=O)N[C@@H](Cc2c[nH]c3ccccc23)C(=O)N[C@@H](CO)C(=O)N[C@@H](CCCCN)C(=O)N[C@@H](CCCNC(=N)N)C(=O)N[C@@H](CO)C(=O)N[C@@H](CC(C)C)C(=O)O)[C@@H](C)O)NC1=O [long relaxin] | stable by reverse phase HPLC for at least five months |  |  | 
porcine relaxin |  | improve the cervical score | induce changes in the morphology of the pregnant cervix consistent with ripening | ≤ 8 h
